ChEMBL document CHEMBL4049402, “Synthesis and cytotoxic activity of novel tetrahydrobenzodifuran-imidazolium salt derivatives” (Bioorg Med Chem Lett, 2017)

Key:
Type in all cases: functional, cell-based
SMMC-7721 = assay: Cytotoxicity against human SMMC7721 cells after 48 hrs by MTT assay
MCF7 = assay: Cytotoxicity against human MCF7 cells after 48 hrs by MTT assay
SW480 = assay: Cytotoxicity against human SW480 cells after 48 hrs by MTT assay
HL-60 = assay: Cytotoxicity against human HL60 cells after 48 hrs by MTT assay
A549 = assay: Cytotoxicity against human A549 cells after 48 hrs by MTT assay

Structure (SMILES) | IC50 (SMMC-7721; Homo sapiens, SMMC-7721, 48 h) [µM] | IC50 (MCF7; Homo sapiens, MCF7, 48 h) [µM] | IC50 (SW480; Homo sapiens, SW480, 48 h) [µM] | IC50 (HL-60; Homo sapiens, HL-60, 48 h) [µM] | IC50 (A549; Homo sapiens, A549, 48 h) [µM] | IC50 (SMMC-7721; smmc-7721) [µM] | IC50 (MCF7; mcf7) [µM] | IC50 (SW480; sw480) [µM] | IC50 (HL-60; hl-60) [µM] | IC50 (A549; a549) [µM]
c1ccc2cc(C[n+]3cn(Cc4c5c(cc6c4OCC6)OCC5)c4ccccc43)ccc2c1 | 5.66 | 2.62 | 4.11 | 2.3 | 10.7 | – | – | – | – | –
Cc1cc2c(cc1C)[n+](CC(=O)c1ccccc1)cn2Cc1c2c(cc3c1OCC3)OCC2 | 17.4 | 7.8 | 11.9 | 5.68 | > 20 | – | – | – | – | –
Cc1cc2c(cc1C)[n+](Cc1ccc(Br)cc1)cn2Cc1c2c(cc3c1OCC3)OCC2 [listing 1 of 2 here] | 4.72 | 6.85 | 10.1 | 0.49 | 6.9 | – | – | – | – | –
Cc1n(Cc2c3c(cc4c2OCC4)OCC3)c2ccccc2[n+]1CC(=O)c1ccccc1 | > 20 | > 20 | > 20 | > 20 | > 20 | – | – | – | – | –
Cc1cc2c(cc1C)[n+](Cc1ccccc1Br)cn2Cc1c2c(cc3c1OCC3)OCC2 | 5.96 | 7.29 | 7.87 | 3.18 | 8.64 | – | – | – | – | –
Cc1ccc(C[n+]2cn(Cc3c4c(cc5c3OCC5)OCC4)c3cc(C)c(C)cc32)cc1 [listing 1 of 2 here] | – | – | – | – | – | 6.49 | 7.98 | 6.31 | 0.38 | 4.06
O=C(C[n+]1cn(Cc2c3c(cc4c2OCC4)OCC3)c2ccccc21)c1ccc(Br)cc1 | 5.95 | 5.12 | 5.11 | 5.81 | 16.1 | – | – | – | – | –
Cc1n(Cc2c3c(cc4c2OCC4)OCC3)c2ccccc2[n+]1Cc1ccc([N+](=O)[O-])cc1 | > 20 | > 20 | > 20 | > 20 | > 20 | – | – | – | – | –
O=[N+]([O-])c1ccc(C[n+]2cn(Cc3c4c(cc5c3OCC5)OCC4)c3ccccc32)cc1 | > 20 | > 20 | > 20 | > 20 | > 20 | – | – | – | – | –
Cc1cc2c(cc1C)[n+](Cc1ccc3ccccc3c1)cn2Cc1c2c(cc3c1OCC3)OCC2 [listing 1 of 2 here] | – | – | – | – | – | 2.98 | 8.34 | 6.84 | 0.29 | 3.62
COc1ccc(C(=O)C[n+]2ccn(Cc3c4c(cc5c3OCC5)OCC4)c2)cc1 | > 20 | > 20 | > 20 | > 20 | > 20 | – | – | – | – | –
Cc1cc2c(cc1C)[n+](Cc1ccc3ccccc3c1)cn2Cc1c2c(cc3c1OCC3)OCC2 [listing 2 of 2 here] | 2.99 | – | 3.48 | – | 4.34 | – | 3.94 | – | 1.06 | –
Cc1n(Cc2c3c(cc4c2OCC4)OCC3)c2ccccc2[n+]1CC(=O)c1ccc(Br)cc1 | 11.8 | 6.43 | 8.29 | 4.7 | > 20 | – | – | – | – | –
COc1ccc(C(=O)C[n+]2cn(Cc3c4c(cc5c3OCC5)OCC4)c3ccccc32)cc1 | > 20 | 6.6 | 14 | 5.99 | > 20 | – | – | – | – | –
Cc1ccc(C[n+]2cn(Cc3c4c(cc5c3OCC5)OCC4)c3cc(C)c(C)cc32)cc1 [listing 2 of 2 here] | 4.43 | 7.39 | 6.15 | – | 5.82 | – | – | – | 1.58 | –
Cc1cc2ncn(Cc3c4c(cc5c3OCC5)OCC4)c2cc1C | > 20 | > 20 | > 20 | > 20 | > 20 | – | – | – | – | –
c1ccc2cc(C[n+]3ccn(Cc4c5c(cc6c4OCC6)OCC5)c3)ccc2c1 | > 20 | > 20 | > 20 | > 20 | > 20 | – | – | – | – | –
Cc1ccc(C[n+]2cn(Cc3c4c(cc5c3OCC5)OCC4)c3ccccc32)cc1 | > 20 | > 20 | > 20 | > 20 | > 20 | – | – | – | – | –

Structure (SMILES) | IC50 (SMMC-7721; Homo sapiens, SMMC-7721, 48 h) [µM] | IC50 (MCF7; Homo sapiens, MCF7, 48 h) [µM] | IC50 (SW480; Homo sapiens, SW480, 48 h) [µM] | IC50 (HL-60; Homo sapiens, HL-60, 48 h) [µM] | IC50 (A549; Homo sapiens, A549, 48 h) [µM] | IC50 (SMMC-7721; smmc-7721) [µM] | IC50 (MCF7; mcf7) [µM] | IC50 (SW480; sw480) [µM] | IC50 (HL-60; hl-60) [µM] | IC50 (A549; a549) [µM]
Cc1cc2c(cc1C)[n+](CC(=O)c1ccc(Br)cc1)cn2Cc1c2c(cc3c1OCC3)OCC2 [listing 1 of 2 here] | – | – | – | – | – | 13 | 18 | 15.2 | 2.38 | 15.3
COc1ccc(C(=O)C[n+]2cn(Cc3c4c(cc5c3OCC5)OCC4)c3cc(C)c(C)cc32)cc1 | 6.87 | 9.87 | 13.7 | 2.71 | 15.4 | – | – | – | – | –
O=C(C[n+]1ccn(Cc2c3c(cc4c2OCC4)OCC3)c1)c1ccc(Br)cc1 | > 20 | > 20 | > 20 | > 20 | > 20 | – | – | – | – | –
O=C(C[n+]1cn(Cc2c3c(cc4c2OCC4)OCC3)c2ccccc21)c1ccccc1 | > 20 | > 20 | > 20 | > 20 | > 20 | – | – | – | – | –
Cc1cc2c(cc1C)[n+](CC(=O)c1ccc(Br)cc1)cn2Cc1c2c(cc3c1OCC3)OCC2 [listing 2 of 2 here] | – | 12.7 | 16.3 | 4.04 | 8 | 6.23 | – | – | – | –
Cc1cc2c(cc1C)[n+](Cc1ccc([N+](=O)[O-])cc1)cn2Cc1c2c(cc3c1OCC3)OCC2 | > 20 | > 20 | > 20 | > 20 | > 20 | – | – | – | – | –
Cc1cc2c(cc1C)[n+](Cc1ccc(Br)cc1)cn2Cc1c2c(cc3c1OCC3)OCC2 [listing 2 of 2 here] | – | – | – | – | – | 6.61 | 8.05 | 7.76 | 0.57 | 9.01
Cc1ccc(C[n+]2c(C)n(Cc3c4c(cc5c3OCC5)OCC4)c3ccccc32)cc1 | > 20 | > 20 | > 20 | > 20 | > 20 | – | – | – | – | –
Cc1n(Cc2c3c(cc4c2OCC4)OCC3)c2ccccc2[n+]1Cc1ccccc1Br | > 20 | > 20 | > 20 | > 20 | > 20 | – | – | – | – | –
Cc1ccc(C[n+]2ccn(Cc3c4c(cc5c3OCC5)OCC4)c2)cc1 | > 20 | > 20 | > 20 | > 20 | > 20 | – | – | – | – | –
Brc1ccccc1C[n+]1ccn(Cc2c3c(cc4c2OCC4)OCC3)c1 | > 20 | > 20 | > 20 | > 20 | > 20 | – | – | – | – | –
O=C(C[n+]1ccn(Cc2c3c(cc4c2OCC4)OCC3)c1)c1ccc2ccccc2c1 | > 20 | > 20 | > 20 | > 20 | > 20 | – | – | – | – | –
Brc1ccc(C[n+]2cn(Cc3c4c(cc5c3OCC5)OCC4)c3ccccc32)cc1 | 17.8 | 5.4 | 10.1 | 4.12 | > 20 | – | – | – | – | –
Cc1n(Cc2c3c(cc4c2OCC4)OCC3)c2ccccc2[n+]1Cc1ccc2ccccc2c1 | 5.5 | 3.4 | 4.1 | 1.76 | 9.14 | – | – | – | – | –
c1ccc2c(c1)ncn2Cc1c2c(cc3c1OCC3)OCC2 | > 20 | > 20 | > 20 | > 20 | > 20 | – | – | – | – | –
Cc1nc2ccccc2n1Cc1c2c(cc3c1OCC3)OCC2 | > 20 | > 20 | > 20 | > 20 | > 20 | – | – | – | – | –
O=[N+]([O-])c1ccc(C[n+]2ccn(Cc3c4c(cc5c3OCC5)OCC4)c2)cc1 | > 20 | > 20 | > 20 | > 20 | > 20 | – | – | – | – | –
c1cn(Cc2c3c(cc4c2OCC4)OCC3)cn1 | > 20 | > 20 | > 20 | > 20 | > 20 | – | – | – | – | –
